Results taken from US20250325534A1, “MICROBIOCIDAL TETRAHYDROISOQUINOLINE DERIVATIVES” (SYNGENTA CROP PROTECTION AG, priority 2021, published 2025).

Assays:
[1] = system: Glomerella lagenarium; test: Glomerella lagenarium (Colletotrichum lagenarium) / liquid culture (anthracnose); assay type: cell-based; details: Colletotrichum orbiculare, 72 h, photometrically 3-4 days after application, read-out: control of Glomerella lagenarium
Procedure, shortened: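 Conidia in potato dextrose broth added to test compound delivered as DMSO solution in microtiter plates; incubation at 24° C. Growth inhibition read photometrically 3-4 days after application.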

[2] = system: Botryotinia fuckeliana; test: Botryotinia fuckeliana (Botrytis cinerea) / liquid culture (gray mould); assay type: cell-based; details: 72 h, growth inhibition photometrically 3-4 days after application, read-out: control of Botryotinia fuckeliana
Procedure, shortened: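 Botrytis cinerea conidia in Vogels nutrient broth added to test compound delivered in DMSO. Incubated at 24 °C; growth inhibition measured photometrically 3–4 days after application.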

[3] = system: Mycosphaerella arachidis; test: Mycosphaerella arachidis (Cercospora arachidicola) / liquid culture (early leaf spot); assay type: cell-based; details: 96 h, photometrically 4-5 days after application, read-out: control of Mycosphaerella arachidis
Procedure, shortened: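 Photometric growth inhibition, read 4-5 days post-application at 24 °C, of Cercospora arachidicola spores suspended in potato dextrose broth and exposed to test compound delivered from DMSO solution.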

[4] = system: Monographella nivalis; test: Monographella nivalis (Microdochium nivale) / liquid culture (foot rot cereals); assay type: cell-based; details: 96 h, photometrically 4-5 days after application, read-out: control of Monographella nivalis
Procedure, shortened: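 Test compound, applied as a DMSO solution, was challenged with fungal spores suspended in potato dextrose broth; after 4-5 days at 24° C, photometric readout gave inhibition of growth.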

[5] = system: fungi; test: Fungicidal activity of separated stereoisomers compared (test not specified); details: comparison of SFC-separated isomers; test and fungus not given
[6] = system: Phaeosphaeria nodorum; test: Phaeosphaeria nodorum (Septoria nodorum) / wheat / leaf disc preventative (glume blotch); assay type: in vivo; details: Parastagonospora nodorum, foliar, inoculated 2 days after application
Procedure, shortened: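 Wheat leaf discs (cv. Kanzler) on agar were sprayed with formulated compound diluted in water, then inoculated with spores 2 days later. Incubation was at 20 °C and 75% relative humidity under 12 h light/12 h dark. Percent disease control versus untreated was scored 5–7 days after application.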

[7] = system: Mycosphaerella graminicola; test: Mycosphaerella graminicola (Septoria tritici) / liquid culture (Septoria blotch); assay type: cell-based; details: Zymoseptoria tritici, 96 h, photometrically 4-5 days after application, read-out: control of Mycosphaerella graminicola
Procedure, shortened: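 Growth inhibition measured by photometry 4-5 days post application, at 24° C incubation. Test compound supplied as DMSO solution; fungal conidia from cryostorage suspended directly in potato dextrose broth as inoculum.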

[8] = system: Alternaria solani; test: Alternaria solani / tomato / leaf disc (early blight); assay type: in vivo; details: foliar, inoculated 2 days after application, vs untreated control
[9] = system: Pyrenophora teres; test: Pyrenophora teres / barley / leaf disc preventative (net blotch); assay type: in vivo; details: foliar, inoculated 2 days after application
Procedure, shortened: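 Barley cv. Hasso leaf segments on agar sprayed with formulated compound in water, then inoculated with spore suspension 2 days later. Incubated at 20° C., 65% RH, 12 h light/12 h dark; disease control versus untreated assessed 5-7 days after application.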

[10] = system: Sclerotinia sclerotiorum; test: Sclerotinia sclerotiorum / liquid culture (cottony rot); assay type: cell-based; details: 72 h, photometrically 3-4 days after application, read-out: control of Sclerotinia sclerotiorum
Method: Example B18: Sclerotinia sclerotiorum/Liquid Culture (Cottony Rot) Mycelia fragments of a newly grown liquid culture of the fungus are directly mixed into a nutrient broth (potato dextrose broth). After placing a DMSO solution of test compound into a microtiter plate (96-well format) the nutrient broth containing the fungal material is added. The test plates are incubated at 24° C. and the inhibition of growth is determined photometrically 3-4 days after application.

[11] = system: Fusarium culmorum; test: microbe, parasite or virus in culture; assay type: cell-based; details: 72 h, read-out: control of Fusarium culmorum
[12] = system: Blumeria graminis f. sp. tritici; test: Blumeria graminis f. sp. tritici / wheat / leaf disc preventative (powdery mildew); assay type: in vivo; details: foliar, inoculated 1 day after application
Method: Example B7: Blumeria graminis f. Sp. Tritici (Erysiphe graminis f. Sp. Tritici)/Wheat/Leaf Disc Preventative (Powdery Mildew on Wheat) Wheat leaf segments cv. Kanzler are placed on agar in a multiwell plate (24-well format) and sprayed with the formulated test compound diluted in water. The leaf disks are inoculated by shaking powdery mildew infected plants above the test plates 1 day after application. The inoculated leaf disks are incubated at 20° C. and 60% relative humidity under a light regime of 24 h darkness followed by 12 h light/12 h darkness in a climate chamber and the activity of a compound is assessed as percent disease control compared to untreated when an appropriate level of disease damage appears on untreated check leaf segments (6-8 days after application).

SMILES	inhibition of growth at 20 ppm [1] [%]	inhibition of growth at 20 ppm [2] [%]	inhibition of growth at 20 ppm [3] [%]	inhibition of growth at 20 ppm [4] [%]	fungicidal activity relative to its stereoisomer [5]	pest or weed control at 200 ppm [6] [%]	inhibition of growth at 20 ppm [7] [%]	pest or weed control at 200 ppm [8] [%]	pest or weed control at 200 ppm [9] [%]	inhibition of growth at 20 ppm [10] [%]	inhibition of growth at 20 ppm [11] [%]	pest or weed control at 200 ppm [12] [%]
C[C@H]1c2ccccc2[C@@](C)(c2cnn(C)c2)CN1C(=O)c1cc(-c2ccc(F)cc2F)on1 (single isomer, unassigned) [Compound P-6]	≥ 80	≥ 80	≥ 80	≥ 80	more fungicidally active than the compound of peak 3	≥ 80	≥ 80	≥ 80	≥ 80	–	–	–
C[C@@H]1c2ccccc2[C@@](C)(c2cnn(C)c2)CN1C(=O)c1cc(-c2ccc(F)cc2F)on1 (single isomer, unassigned) [Compound P-9]	–	–	–	≥ 80	more fungicidally active than the compound of peak 2	–	≥ 80	–	–	–	–	–
Cn1cc([C@@]2(C)CN(C(=O)c3cc(-c4ccc(F)cc4F)on3)Cc3ccccc32)cn1 (single isomer, unassigned) [Compound P-48]	≥ 80	≥ 80	≥ 80	≥ 80	more fungicidally active than the (R) isomer	≥ 80	≥ 80	≥ 80	≥ 80	≥ 80	–	–
Cc1c(C2CN(C(=O)c3cc(-c4ccc(F)cc4F)on3)Cc3ccccc32)cnn1C (single isomer, unassigned) [Compound P-223, [5-(2,4-difluorophenyl)isoxazol-3-yl]-[4-(1,5-dimethylpyrazol-4-yl)-3,4-dihydro-1H-isoquinolin-2-yl]methanone]	≥ 80	≥ 80	≥ 80	≥ 80	–	–	≥ 80	–	–	≥ 80	≥ 80	–
Cc1c(C2CN(C(=O)c3nnc(-c4ccc(F)cc4F)s3)Cc3ccccc32)cnn1C (stereo not drawn) [Compound P-65, [5-(2,4-difluorophenyl)-1,3,4-thiadiazol-2-yl]-[4-(1,5-dimethylpyrazol-4-yl)-3,4-dihydro-1H-isoquinolin-2-yl]methanone]	≥ 80	≥ 80	≥ 80	≥ 80	–	≥ 80	≥ 80	≥ 80	≥ 80	≥ 80	≥ 80	≥ 80
Cc1c(C2CN(C(=O)c3cc(-c4ccc(F)cc4F)no3)Cc3ccccc32)cnn1C (stereo not drawn) [Compound P-108, [3-(2,4-difluorophenyl)isoxazol-5-yl]-[4-(1,5-dimethylpyrazol-4-yl)-3,4-dihydro-1H-isoquinolin-2-yl]methanone]	≥ 80	≥ 80	≥ 80	≥ 80	–	≥ 80	≥ 80	≥ 80	≥ 80	–	≥ 80	≥ 80
Cc1c(C2CN(C(=O)c3cc(-c4ccccc4F)on3)Cc3ccccc32)cnn1C (stereo not drawn) [Compound P-119, [4-(1,5-dimethylpyrazol-4-yl)-3,4-dihydro-1H-isoquinolin-2-yl]-[5-(2-fluorophenyl)isoxazol-3-yl]methanone]	≥ 80	≥ 80	≥ 80	≥ 80	–	≥ 80	≥ 80	≥ 80	≥ 80	–	≥ 80	–
Cn1ncc(C2CN(C(=O)c3nnc(-c4ccc(F)cc4F)s3)Cc3ccccc32)c1Cl (stereo not drawn) [Compound P-212, [4-(5-chloro-1-methyl-pyrazol-4-yl)-3,4-dihydro-1H-isoquinolin-2-yl]-[5-(2,4-difluorophenyl)-1,3,4-thiadiazol-2-yl]methanone]	≥ 80	≥ 80	≥ 80	≥ 80	–	–	≥ 80	–	–	≥ 80	≥ 80	–
